Laboratory results reported in patent US9770170B2, “Methods for diagnosing, treating, and monitoring chronic inflammatory response syndrome” (priority 2012, dated 2017).

How the values were obtained:
[1] = test system: patients with clinically-confirmed CIRS-WDB; test: Stress echocardiography, pulmonary artery systolic pressure (PASP) in exercise; assay type: in vivo, human; settings: all subjects, within two months; entry criterion rise exceeding 8 mm Hg versus resting PASP
Text: Entry criteria also included a rise in pulmonary artery systolic pressure (PASP) in exercise as measured by stress echocardiography that exceeded 8 mm Hg as compared to resting PASP. Standard Bruce protocols were employed during stress echocardiography testing. […] All patients achieved target heart rate; none developed ischemic changes on EKG or chest pain during stress testing.

[2] = test system: patients with clinically-confirmed CIRS-WDB; test: Open-label VIP replacement trial: safety and tolerability
Text: (§1) For the experimental protocol, subjects self-administered 50 mcg VIP (Aviptadil; Bachem AG, Switzerland) four times a day via nasal aerosol and returned to the clinic to review symptoms and clinical course, and undergo interval physical exam and laboratory exam at scheduled intervals. Clinical data were collected before any treatments, or baseline (BASE); after all other treatments and before VIP (AC2); after 12 months of VIP (12M); and after 18 months of VIP (18M). Data collection included physician recorded symptoms in a medical history (Table 2); levels of VIP, MSH, C4a, TGF beta-1, VEGF, MMP9, estradiol, testosterone, 25-0H vitamin D, lipase, CBC and CMP. Measurement of CD4+CD25+T regulatory (Treg) cells was not available at BASE; Treg testing was performed at AC2 and 18 month time periods. Laboratory testing for all analytes was performed by high complexity CLIA-certified labs including LabCorp and Quest Diagnostics. All data were compared to either established normative values or values from prior testing of healthy control populations (N=850) performed at this clinic. Data were analyzed by two-sample T-tests for each of two study time points and one-sample T-tests that compared the specified data to the corresponding historical control values. A Bonferroni correction to the p-values was done to control the experiment-wise error rate. A p value of <0.001 was chosen as the determinant of significance for the study.

human volunteers = test: Initial use of low dose VIP by nasal instillation (earlier trials)
Text: (§2) 3A. Treatment: Human research approval for this study was provided by Copernicus Group IRB, Cary, N.C. […] Further, certain patients were excluded from the trial for the following reason. […] Patients with these findings were excluded from the formal replacement trial.

CD4+CD25+ Treg cells = test: Flow cytometry of CD4+CD25+ T regulatory (Treg) cells; assay type: in vivo, human; settings: 18 month versus AC2, increase from a mean of 8.9
Text: CD4^+ CD25^+ Treg cells in CIRS patients can be measured by flow cytometry. CD4^+ CD25^+ Treg cells mature in response to an inflammatory stimulation, and in particular, in response to increasing levels of TGF-β1. Matured CD4^+ CD25^+ Treg cells migrate to tissues to suppress inflammation and autoimmunity. However, if there is a pre-existing inflammatory response ongoing in tissues, CD4^+ CD25^+ Treg cells may turn into autoreactive T cells. Therefore, the determination of CD4^+ CD25^+ Treg cells in blood as well as in tissues may be helpful in assessing the status of inflammation in CIRS patients.

[3] = test system: patients with clinically-confirmed CIRS-WDB; test: Open-label VIP replacement trial: laboratory parameters (CLIA labs); settings: for Estra-M (estradiol in males) mean value: Control 23.1, Base 36, AC2 30.3; for VIP level mean value: Control 28.9, Base 9.3, AC2 14.4; for Estra-F (estradiol in females) mean value: Control 29.8, Base 28, AC2 26.6; for Lipase mean value: Control 30.1, Base 24.2, AC2 30.8; for MSH mean value: Control 37.2, Base 9.4, AC2 16.8; for VIT D (25-OH vitamin D) mean value: Control 38.4, Base 19.4, AC2 24.1; for VEGF mean value: Control 65, Base 61, AC2 95.3; for Test-F (testosterone in females) mean value: Control 282, Base 20, AC2 18.9; for MMP-9 mean value: Control 332, Base 628, AC2 358; for Test-M (testosterone in males) mean value: Control 415, Base 298.8, AC2 293.5; for TGF (TGF beta-1) mean value: Control 2380, Base 12579, AC2 13015; for C4a mean value: Control 2830, Base 8346, AC2 4662
Text: as §2
(§3) All patients enrolled in the trial were confirmed to be exposed to WDB by observation of illness acquisition solely following water intrusion followed by either (1) visible microbial growth; (2) specification of molds by QPCR DNA testing; or (3) musty smells. All patients met the case criteria established by the GAO (US GAO 2008). Patients were known to the clinic with a 36-month mean duration of prior treatment following exposure to WDB.
as §1

[4] = test system: patients with clinically-confirmed CIRS-WDB; test: Open-label VIP replacement trial: physician recorded symptoms; assay type: in vivo, human; settings: for SX (symptoms) mean value: Control 2.9, Base 29.8, AC2 17.8
Text: as §2, §3, §1

[5] = initial use of low dose VIP by nasal instillation

CC[C@H](C)[C@H](NC(=O)[C@H](CO)NC(=O)[C@H](CC(N)=O)NC(=O)[C@H](CC(C)C)NC(=O)[C@H](Cc1ccc(O)cc1)NC(=O)[C@H](CCCCN)NC(=O)[C@H](CCCCN)NC(=O)[C@@H](NC(=O)[C@H](C)NC(=O)[C@H](CCSC)NC(=O)[C@H](CCC(N)=O)NC(=O)[C@H](CCCCN)NC(=O)[C@H](CCCNC(=N)N)NC(=O)[C@H](CC(C)C)NC(=O)[C@H](CCCNC(=N)N)NC(=O)[C@@H](NC(=O)[C@H](Cc1ccc(O)cc1)NC(=O)[C@H](CC(N)=O)NC(=O)[C@H](CC(=O)O)NC(=O)[C@@H](NC(=O)[C@H](Cc1ccccc1)NC(=O)[C@@H](NC(=O)[C@H](C)NC(=O)[C@H](CC(=O)O)NC(=O)[C@H](CO)NC(=O)[C@@H](N)Cc1c[nH]cn1)C(C)C)[C@@H](C)O)[C@@H](C)O)C(C)C)C(=O)N[C@@H](CC(C)C)C(=O)N[C@@H](CC(N)=O)C(N)=O [VIP, Aviptadil]
Elevated PASP in stress exercise testing reduced to [1]: < 8 mm Hg
Tolerability ([2]; 18 month study, 20 patients, nasal aerosol): tolerated the drug well
Changes in CBC and CMP ([2]; during the trial): No changes
Dropouts due to adverse effects ([2]; over the course of the 18 month study): no dropouts due to adverse effects
Elevated lipase, cases ([2]; resolved without cessation of use of VIP): One patient had a transient elevated level of lipase without abdominal pain
Lipase levels during the trial ([2]; whole cohort): did not rise
Safety of low dose VIP by nasal instillation (human volunteers; human volunteers, initial use): shown to be safe
Effect on pulmonary artery responses to exercise (human volunteers; [5]): blunted accentuated pulmonary artery responses to exercise
Effect on symptoms (human volunteers; [5]): prompt reduction in symptoms
CD4+CD25+ Treg cells, mean (CD4+CD25+ Treg cells): 22.5
Inflammatory parameters versus controls ([3]; VIP nasal spray, open-label trial): not significantly different from controls
Estra-M (estradiol in males) mean value ([3]; after 12 months of VIP): 27.7
VIP level mean value ([3]; after 12 months of VIP): 12.3
Estra-F (estradiol in females) mean value ([3]; after 12 months of VIP): 27.8
Lipase mean value ([3]; after 12 months of VIP): 30.7
MSH mean value ([3]; after 12 months of VIP): 17.3
VIT D (25-OH vitamin D) mean value ([3]; after 12 months of VIP): 38.3
VEGF mean value ([3]; after 12 months of VIP): 73.4
Test-F (testosterone in females) mean value ([3]; after 12 months of VIP): 22.6
MMP-9 mean value ([3]; after 12 months of VIP): 302
Test-M (testosterone in males) mean value ([3]; after 12 months of VIP): 546.7
TGF (TGF beta-1) mean value ([3]; after 12 months of VIP): 5359
C4a mean value ([3]; after 12 months of VIP): 5679
Estra-M (estradiol in males) mean value ([3]; after 18 months of VIP): 22.8
VIP level mean value ([3]; after 18 months of VIP): 16.6
Estra-F (estradiol in females) mean value ([3]; after 18 months of VIP): 28.9
Lipase mean value ([3]; after 18 months of VIP): 27.9
MSH mean value ([3]; after 18 months of VIP): 18.2
VIT D (25-OH vitamin D) mean value ([3]; after 18 months of VIP): 39.3
VEGF mean value ([3]; after 18 months of VIP): 66.2
Test-F (testosterone in females) mean value ([3]; after 18 months of VIP): 25.2
MMP-9 mean value ([3]; after 18 months of VIP): 290
Test-M (testosterone in males) mean value ([3]; after 18 months of VIP): 511.5
TGF (TGF beta-1) mean value ([3]; after 18 months of VIP): 4040
C4a mean value ([3]; after 18 months of VIP): 3306
Patient values versus controls by the end of the trial (symptoms, MSH, VIP, MMP9, C4a, TGF-β1, 25-OH Vitamin D, testosterone in males) ([3]; end of the trial, baseline differed from controls at p<0.01): not statistically different from controls, except for VIP and MSH
Quality of life ([4]; 20 patients, open-label trial): enhanced quality of life
SX (symptoms) mean value ([4]; after 12 months of VIP, 50 mcg four times a day nasal aerosol): 5.5
SX (symptoms) mean value ([4]; after 18 months of VIP): 3.4
Symptom reduction versus controls ([4]; all treated patients): Symptom reduction to equal those of controls
